Entries after “also recorded” stand apart in the source; their conditions may differ.
How the values were obtained:
rhodopsin/opsin = target: T1, rhodopsin/opsin (Mus musculus, UniProt P15409); test: Rhodopsin regeneration ratio of immunoaffinity-purified rhodopsin/opsin, single dose; type: in vivo
T1 construct: from tissue; host or cells: whole eyes of wild-type C57BL/6 female mice
Description: Forty eight hr dark-adapted, 10-month-old mice were gavaged with a single dose (˜80 mg/kg body weight) of 9-cis-R-Ac or control vehicle and exposed to strong illumination for 20 min (500 cd·m^−2 that bleached ˜90% rhodopsin). Next, mice were dark-adapted for 16 hr after which various analyses were performed (FIG. 1A). […] To investigate whether 9-cis-retinal was utilized to form isorhodopsin and to assess how much unliganded opsin was present in the mouse eyes, rhodopsin, isorhodopsin and opsin were purified by immunoaffinity chromatography from treated and control groups of mice. […] After bleaching, 9-cis-retinal is bound to opsin even in the presence of a functional retinoid cycle that produces 11-cis-retinal to regenerate rhodopsin. Eyes from non-bleached or bleached and dark-adapted untreated mice contained a small amount of free opsin.
9-cis-R-Ac was prepared as previously described (Batten, M. L., et al. PLoS medicine 2, e333 (2005); Batten, M. L., et al. J Biol Chem 279, 10422-10432 (2004)). A dose of ˜80 mg/kg body weight of 9-cis-R-Ac in 150 μl vegetable oil was administered via gavage to each treated animal. Prior to single dose experiments (FIG. 1A, Table 1), 10-month-old mice were dark-adapted for more than 48 hr, gavaged with 9-cis-R-Ac or vehicle control solution 1 hr before bleaching, exposed to light for 20 min at 500 cd·m^−2 and dark-adapted for 16 hr before analysis.
Rhodopsin purification was done under dim red light as previously described (Zhu, L., et al. J Biot Chem, 279, 53828-53839 (2004)). […] Purified rhodopsin concentration was determined at 500 nm and total amount of opsin and rhodopsin at 280 nm with a Hewlett-Packard 8452A UV-visible spectrophotometer (Palczewski, K., Carruth, M. E., Adamus, G., McDowell, J. H. & Hargrave, P. A. Vision Research, 30, 1129-1137 (1990)). […]

[1] = A2E accumulation in eyes after long-term treatment; type: in vivo, mouse
Description: To evaluate the safety of long-term administration of 9-cis-R-Ac, A2E accumulation was measured (FIG. 6A), because retinals spontaneously condense to this compound (Mata, N. L., Weng, J. & Travis, G. H. Proceedings of the National Academy of Sciences of the United States of America 97, 7154-7159 (2000); Parish, C. A., Hashimoto, M., Nakanishi, K., Dillon, J. & Sparrow, J. Proceedings of the National Academy of Sciences of the United States of America 95, 14609-14613 (1998)).
All experimental procedures related to extraction, derivatization and separation of retinoids were carried out under dim red light provided by a Kodak No. 1 safelight filter (transmittance>560 nm) as described previously (Van Hooser, J. P., et al. Proceedings of the National Academy of Sciences of the United States of America 97, 8623-8628 (2000); Van Hooser, J. P., et al. J Biol Chem, 277, 19173-19182 (2002); Maeda, A., et al. J Biol Chem 280, 18822-18832 (2005); Van Hooser, J. P., Garwin, G. G. & Saari, J. C. Methods Enzymol 316, 565-575 (2000)). […] The combined extracts were dried under argon and retinoids were separated by normal phase HPLC (Beckman, Ultrasphere-Si, 5 μm, 4.6×250 mm) with 10% ethyl acetate and 90% hexane at a flow rate of 1.4 ml/min and detected at 325 nm by an HPI 100 HPLC with a diode array detector and HP Chemstation A.03.03 software. […]

[2] = Husbandry: activity, coat and skin appearance, body weight, tolerability
Description: Animals were evaluated weekly for activity and changes in coat and skin appearance.
For the long-term study (FIGS. 1B and 1C, Table 1), mice were obtained at 3 months of age and raised until 4 months of age before the experiments were initiated. Mice then were gavaged with 9-cis-R-Ac or vehicle solution once a month for different durations. Six groups of mice were studied (FIG. 1B). The first 3 groups (C0 C1 and C2, total n=35 for each group) were treated as controls and tested at 4, 10 and 14 months of age. The other 3 groups (N1, N2 and N3, n=35) were gavaged with 9-cis-R-Ac. Group N1 was gavaged for 6 months and tested at 10 months of age. Group N2 was gavaged with 9-cis-R-Ac for 10 months and tested at 14 months of age. Group N3, was gavaged with vehicle until 10 months of age and then received 9-cis-R-Ac monthly until testing at 14 months of age.

T1 sequence (P15409 whole entry): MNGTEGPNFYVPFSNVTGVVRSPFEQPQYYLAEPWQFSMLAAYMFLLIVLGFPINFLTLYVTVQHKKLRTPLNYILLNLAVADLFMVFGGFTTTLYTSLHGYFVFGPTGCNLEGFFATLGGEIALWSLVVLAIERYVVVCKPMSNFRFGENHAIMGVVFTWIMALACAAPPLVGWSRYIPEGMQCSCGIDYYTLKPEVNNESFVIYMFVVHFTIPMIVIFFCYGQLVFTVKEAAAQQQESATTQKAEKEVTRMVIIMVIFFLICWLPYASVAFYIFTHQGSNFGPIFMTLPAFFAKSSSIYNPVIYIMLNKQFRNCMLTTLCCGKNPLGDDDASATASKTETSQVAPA

CC(=O)OC/C=C(C)/C=C/C=C(C)\C=C\C1=C(C)CCCC1(C)C [9-cis-R-Ac, 9-cis-retinyl acetate]
regeneration ratio of rhodopsin (absorbance 498 nm/280 nm) (rhodopsin/opsin; single dose ~80 mg/kg gavage, 10-month-old mice, bleached, 16 hr dark-adapted, treated vs control, 80 mg/kg): significantly higher; also recorded: improved; also recorded: slightly higher | 9-cis-retinal extracted from purified proteins (bound chromophore) (rhodopsin/opsin; single dose, samples from treated mice): a significant amount of 9-cis-retinal was detected | total amount of purified protein (rhodopsin/opsin; single dose, treated vs control): did not significantly differ | amounts of A2E in eyes ([1]; all experimental groups (C1, C2, N1, N2, N3), FIG. 6B): did not differ significantly among all groups with the exception of N3, where they were slightly lower | A2E and iso-A2E levels in eyes ([1]; long-term treatment, treated vs control at 10 and 14 months of age): did not accumulate | activity and changes in coat and skin appearance ([2]; evaluated weekly during the experimental period): No changes | body weights ([2]; pre-treatment, 10 months and 14 months, control (C1-2) vs treated (N1-3)): no significant differences

Reference: patent publication US9855239B2, “Methods for the treatment and prevention of age-related retinal dysfunction” (University of Washington, priority 2008, dated 2018)
